According to patent US20090215778A1, “Alpha-substituted Arylmethyl Piperazine Pyrazolo [1,5-alpha]Pyrimidine Amide Derivatives” (priority 2007, published 2009):

Tests used:
HIV-1, NL4-3 strain = assay: Virus infection assay (virus entry and single-cycle infection); type: cell-based; details: Human immunodeficiency virus 1, NL43, TZM-b1, read-out: Nl4
Summary of the method: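 Single-cycle entry/infection read-out: β-galactosidase chemiluminescence measured one day after infection. Compounds were present during a 4 h, 37 °C exposure of TZM-b1 reporter cells to NL4-3 virus at MOI 0.01 plus DEAE-dextran (80 μg/mL final), followed by addition of complete medium.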

[1] = molecular target: T1, HIV Env six-helix bundle (6HB) structure (Human immunodeficiency virus type 1 group M subtype B, UniProt P04579); assay: Six-helix bundle (6HB) assay; type: cell-based, HIV-1 (strain RF)
T1 construct: H9 cells chronically infected with HIV-1 (H9/HIV-1RF); endogenous in cells; host or cells: H9 cells chronically infected with HIV-1 strain RF (Env is made from the virus in the infected cells, not by transfection)
Summary of the method: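 Flow cytometry measured binding of a six-helix-bundle-specific polyclonal antibody, detected with PE-labelled secondary at 4 °C for 45 min, on H9/HIV-1 RF chronically infected cells. Compound was given 30 min at 37 °C before 1 μg/mL soluble CD4 induction for 1 h. Inhibition appears as reduced fluorescence.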

T1 sequence (P04579 32-519): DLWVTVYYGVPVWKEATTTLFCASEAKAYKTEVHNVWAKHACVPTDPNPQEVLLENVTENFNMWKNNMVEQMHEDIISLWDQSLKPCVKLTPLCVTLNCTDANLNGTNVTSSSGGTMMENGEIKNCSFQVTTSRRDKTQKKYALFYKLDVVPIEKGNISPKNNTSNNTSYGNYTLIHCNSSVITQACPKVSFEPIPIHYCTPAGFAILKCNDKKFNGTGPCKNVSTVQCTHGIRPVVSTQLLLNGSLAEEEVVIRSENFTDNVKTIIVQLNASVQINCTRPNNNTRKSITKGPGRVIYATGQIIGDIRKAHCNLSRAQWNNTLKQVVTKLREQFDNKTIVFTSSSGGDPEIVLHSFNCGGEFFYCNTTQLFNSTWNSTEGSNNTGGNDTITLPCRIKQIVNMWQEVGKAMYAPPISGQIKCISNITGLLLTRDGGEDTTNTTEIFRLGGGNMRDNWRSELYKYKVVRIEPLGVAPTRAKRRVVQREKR
T1 sequence (P04579 520-865): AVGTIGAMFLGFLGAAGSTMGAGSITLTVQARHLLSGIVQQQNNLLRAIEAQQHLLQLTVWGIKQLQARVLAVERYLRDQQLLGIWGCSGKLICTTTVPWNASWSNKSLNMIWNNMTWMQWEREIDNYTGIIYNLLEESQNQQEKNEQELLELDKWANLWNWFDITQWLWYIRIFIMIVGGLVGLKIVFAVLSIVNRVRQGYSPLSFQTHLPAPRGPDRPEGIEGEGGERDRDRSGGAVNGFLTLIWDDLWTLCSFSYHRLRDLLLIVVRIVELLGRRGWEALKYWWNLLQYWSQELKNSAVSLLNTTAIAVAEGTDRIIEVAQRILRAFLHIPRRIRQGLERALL

Row | SMILES | IC50 (HIV-1, NL4-3 strain) [µM] | IC50 [1] [µM]
1 | COc1ccc(-c2nc3c(C(=O)N4CCN(C(CNC(C)=O)c5ccccc5)C[C@H]4C)cnn3c(C(F)(F)F)c2C)cc1 (stereo partly drawn) [acetamide, N-[2-[(3R)-4-[[5-(4-methoxyphenyl)-6-methyl-7-(trifluoromethyl)pyrazolo[1,5-α]pyrimidin-3-yl]carbonyl]-3-methyl-1-piperazinyl]-2-phenylethyl]-] | < 1 | < 1
2 | COc1ccc(-c2nc3c(C(=O)N4CCN(C(CN)c5ccccc5)C[C@H]4C)cnn3c(C(F)(F)F)c2C)cc1 (stereo partly drawn) [methanone, [(2R)-4-(2-amino-1-phenylethyl)-2-methyl-1-piperazinyl][5-(4-methoxyphenyl)-6-methyl-7-(trifluoromethyl)pyrazolo[1,5-α]pyrimidin-3-yl]-] | < 1 | < 1
3 | COc1ccc(-c2nc3c(C(=O)N4CCN(C(CO)c5cc(F)cc(F)c5OC)C[C@H]4C)cnn3c(C(F)(F)F)c2C)cc1 (stereo partly drawn) [methanone, [(2R)-4-[1-(3,5-difluoro-2-methoxyphenyl)-2-hydroxyethyl]-2-methyl-1-piperazinyl][5-(4-methoxyphenyl)-6-methyl-7-(trifluoromethyl)pyrazolo[1,5-α]pyrimidin-3-yl]-] | < 1 | < 1
4 | COc1ccc(-c2nc3c(C(=O)N4CCN([C@H](C)c5ccccc5)C[C@H]4C)cnn3c(C(F)(F)F)c2C)cc1 [methanone, [5-(4-methoxyphenyl)-6-methyl-7-(trifluoromethyl)pyrazolo[1,5-α]pyrimidin-3-yl][(2R)-2-methyl-4-[(1R)-1-phenylethyl]-1-piperazinyl]-] | < 1 | < 1
5 | COc1ccc(-c2nc3c(C(=O)N4CCN([C@@H](CO)c5ccccc5OC)C[C@H]4C)cnn3c(C(F)(F)F)c2C)cc1 [methanone, [(2R)-4-[(1R)-2-hydroxy-1-(2-methoxyphenyl)ethyl]-2-methyl-1-piperazinyl][5-(4-methoxyphenyl)-6-methyl-7-(trifluoromethyl)pyrazolo[1,5-α]pyrimidin-3-yl]-] | < 1 | < 1
6 | COc1ccc(-c2nc3c(C(=O)N4CCN(C(CO)c5cc6ccccc6o5)C[C@H]4C)cnn3c(C(F)(F)F)c2C)cc1 (stereo partly drawn) [methanone, [(2R)-4-[1-(2-benzofuranyl)-2-hydroxyethyl]-2-methyl-1-piperazinyl][5-(4-methoxyphenyl)-6-methyl-7-(trifluoromethyl)pyrazolo[1,5-α]pyrimidin-3-yl]-] | < 1 | < 1
7 | COc1ccc(-c2nc3c(C(=O)N4CCN(C(CO)c5cc(F)cc(OC)c5)C[C@H]4C)cnn3c(C(F)(F)F)c2C)cc1 (stereo partly drawn) [methanone, [(2R)-4-[1-(3-fluoro-5-methoxyphenyl)-2-hydroxyethyl]-2-methyl-1-piperazinyl][5-(4-methoxyphenyl)-6-methyl-7-(trifluoromethyl)pyrazolo[1,5-α]pyrimidin-3-yl]-] | < 1 | < 1
8 | COC(=O)C(c1ccccc1)N1CCN(C(=O)c2cnn3c(C(F)(F)F)c(C)c(-c4ccc(OC)cc4)nc23)[C@H](C)C1 (stereo partly drawn) [1-piperazineacetic acid, 4-[[5-(4-methoxyphenyl)-6-methyl-7-(trifluoromethyl)pyrazolo[1,5-α]pyrimidin-3-yl]carbonyl]-3-methyl-α-phenyl-, methyl ester, (3R)-] | < 1 | < 1
9 | COc1ccc(-c2nc3c(C(=O)N4CCN(C(CO)c5cccc(CNC(C)=O)c5)C[C@H]4C)cnn3c(C(F)(F)F)c2C)cc1 (stereo partly drawn) [acetamide, N-[[3-[2-hydroxy-1-[(3R)-4-[[5-(4-methoxyphenyl)-6-methyl-7-(trifluoromethyl)pyrazolo[1,5-α]pyrimidin-3-yl]carbonyl]-3-methyl-1-piperazinyl]ethyl]phenyl]methyl]-] | > 10.1 | > 10.1
10 | CNCC(c1ccccc1)N1CCN(C(=O)c2cnn3c(C(F)(F)F)c(C)c(-c4ccc(OC)cc4)nc23)[C@H](C)C1 (stereo partly drawn) [methanone, [5-(4-methoxyphenyl)-6-methyl-7-(trifluoromethyl)pyrazolo[1,5-α]pyrimidin-3-yl][(2R)-2-methyl-4-[2-(methylamino)-1-phenylethyl]-1-piperazinyl]-] | < 1 | < 1
